Reference: patent US12357591B2 (Nova Southeastern University, priority 2018, dated 2025)

Tests used:
[1] = pH of 2 mL water as diffusion medium with pH-modifying excipients; type: physicochemical
in vitro [2] = conditions: for Papp at 90 min, 10 mg/mL: pig
Procedure: Frozen pig's heads were obtained from local abattoir. Then, they were defrosted at room temperature. The porcine mucosa were excised by dissecting the sublingual mucosa and removing the underlying connective tissue using a scalpel and fine tweezers using established surgical techniques. The excised mucosa were frozen on aluminum foil at −20° C. until used (<4 weeks).
The sublingual mucosa (floor of the mouth) excised from pigs were used as the diffusion membranes. Mcvilian buffer at various pH was used in the donor cell as a diffusion medium.
Before each experiment, the mucosal membranes were defrosted at room temperature and mounted between the donor and receptor chambers and clamped using a metal clamp. The receptor chamber that has a magnetic stirrer was filled with the diffusion medium before mounting the membranes and air bubbles were removed after mounting the membranes and before the experiment. The water bath was set at 37° C. for the circulating water in the jacketed Franz Cells. The mounted membranes were equilibrated with the diffusion medium for 30 min from both sides before the experiment and were checked for any leaks.
Aliquots were withdrawn from the receptor chamber using 6 inch-long needles (Popper & Sons. Inc, New Hyde Park, NYC) and 1 mL syringes at 5, 10, 15, 20, 30, 45, 60, 75, and 90 min. The withdrawn volumes were replaced with fresh medium.
Samples were transferred to HPLC vials for HPLC analysis according to USP Method.

[3] = cited from earlier work
[4] = between pH 4 to 5, first 2 min
Procedure: Aliquot samples were withdrawn at specific time intervals including 2 (maximum expected time for sublingual administration), 4, 6, 10, 15, and 30 min.

[5] = Epinephrine permeability with alkalizing agent and penetration enhancer, Franz cells; type: in vitro ADME, porcine
Procedure: EpiBit solution with penetration enhancer and alkalizing agent was added to the donor chamber.

in vitro [6] = test: in vitro
Procedure: The volunteer was asked not to eat or drink any acidic, alkaline, or spicy food or beverages and to rinse their mouth before the collection of saliva. The saliva was collected into an ice-bathed beaker and then degased to remove air bubbles and then filtered through 0.45 μm membrane.
Aliquot samples were withdrawn at specific time intervals including 2, 4, 6, 10, 15, and 30 min.

[7] = 1.125% (w/v) in 2 mL water, With Epi (20 mg)
[8] = 1.125% (w/v) in 2 mL water, Without Epi
[9] = 1.875% (w/v) in 2 mL water, With Epi (20 mg)
[10] = 1.875% (w/v) in 2 mL water, Without Epi

## O=C([O-])O.[Na+] [Na Bicarbonate, sodium bicarbonate]
[1]; [7]
  pH Reading: 7.9 ± 0.1
[1]; [8]
  pH Reading: 8.9 ± 0.1
[1]; [9]
  pH Reading: 7.7 ± 0.0
[1]; [10]
  pH Reading: 8.5 ± 0.1
[1]; 2.25% (w/v) in 2 mL water, With Epi (20 mg)
  pH Reading: 7.9 ± 0.1
[1]; 2.25% (w/v) in 2 mL water, Without Epi
  pH Reading: 8.6 ± 0.1

## CNC[C@H](O)c1ccc(O)c(O)c1 [Epi, Epinephrine]
In vitro [2]; pH 5
  AUC0-90 min: 5169 ± 255 μg/cm^2/ min
  J (influx): 0.4 ± 0.1 μg/cm^2/min
  Papp at 90 min, 10 mg/mL: 333 ×10⁻⁶ cm/s
In vitro [2]; pH 6
  AUC0-90 min: 6191 ± 756 μg/cm^2/ min
  J (influx): 0.8 ± 0.2 μg/cm^2/min
  Papp at 90 min, 10 mg/mL: 667 ×10⁻⁶ cm/s
In vitro [2]; pH 6.8
  AUC0-90 min: 46562 ± 3450 μg/cm^2/ min
  J (influx): 2.8 ± 0.2 μg/cm^2/min
  Papp at 90 min, 10 mg/mL: 2330 ×10⁻⁶ cm/s
In vitro [2]; pH 7.4
  AUC0-90 min: 60099 ± 6576 μg/cm^2/ min
  J (influx): 5.3 ± 0.2 μg/cm^2/min
  Papp at 90 min, 10 mg/mL: 4330 ×10⁻⁶ cm/s
In vitro [2]; pH 8
  AUC0-90 min: 135689 ± 439 μg/cm^2/ min
  J (influx): 30.9 ± 0.4 μg/cm^2/min
In vitro [2]; pH 8 compared to pH 6.8
  increase of Epi sublingual permeability: about 11 fold
[3]
  optimal pH values for the stability of Epi in aqueous solution: 3.0-3.8
[4]
  Epi loss: 10-17%
[5]; alkalizing agent (pH of diffusion medium around 8) with permeation enhancer like SDS
  enhancement of Epi sublingual permeability: about 25 fold
[5]; alkalizing agent or permeation enhancer, each one alone
  enhancement of Epi sublingual permeability: 10- to 11 fold
In vitro [6]; male, human, human saliva
  recovery at 0 min, 5 mg/mL: 100 ± 0.2%
  recovery at 2 min, 5 mg/mL: 96 ± 0.2%
  recovery at 4 min, 5 mg/mL: 96 ± 0.2%
  recovery at 6 min, 5 mg/mL: 95 ± 0.1%
  recovery at 10 min, 5 mg/mL: 95 ± 0.2%
  recovery at 15 min, 5 mg/mL: 92 ± 0.2%
  recovery at 30 min, 5 mg/mL: 84%
In vitro [6]; saliva pH and up to pH 8
  stability of Epi in human saliva: stable in human saliva (saliva pH and up to pH 8) for sufficient time to allow for sublingual drug administration

## Na Citrate
[1]; [7]
  pH Reading: 5.0 ± 0.1
[1]; [8]
  pH Reading: 9.4 ± 0.1
[1]; [9]
  pH Reading: 7.1 ± 0.1
[1]; [10]
  pH Reading: 9.8 ± 0.1
